Data taken from patent US4714705A, “4-nitrogen substituted isoquinolinol compounds having cardiotonic, phosphodiesterase fraction III inhibiting properties and/or renal vasodilating properties” (Ortho Pharmaceutical Corporation, priority 1986, dated 1987).
Read-outs that look alike come from different tables or passages of the source.

How the values were obtained:
adult mongrel dogs [1] = assay: Acute in vivo cardiotonic activity in anesthetized dogs; design: species or system dog (adult mongrel); details: Canis lupus familiaris, relative to controls; for change in vivo at 0.875 mg/kg: 0.875 mg/kg intravenous; for change in vivo at 8.75 mg/kg: 8.75 mg/kg intravenous; for change in vivo at 0.125 mg/kg: 0.125 mg/kg intravenous; for change in vivo at 1.875 mg/kg: 1.875 mg/kg intravenous; for change in vivo at 0.375 mg/kg: 0.375 mg/kg intravenous; for change in vivo at 0.12 mg/kg: 0.12 mg/kg intravenous; for change in vivo at 0.15 mg/kg: 0.150 mg/kg intravenous
Procedure: The acute in vivo cardiotonic activity of compounds prepared according to the present invention was determined according to a modification of the procedure described by Alousi et al., Circ. Res., 45, 666 (1979).
In particular, adult mongrel dogs were anesthetized with sodium pentobarbital and were artificially respired. Arterial pressure was monitored via a femoral artery, and the pulse pressure was used to trigger a cardiotachometer for heart rate. Left ventricular pressure was determined with a Millar catheter, and dP/dt (the change in ventricular pressure with time) was derived. Cardiac output was determined by measuring ascending aortic blood flow with an electromagnetic flow probe, and myocardial contractile force was measured with a Walton Brodie strain gauge sutured to the right ventricle. Lead II EKG was also recorded.
A standard dose (10 μ/kg/min) of dopamine was administered to assess myocardial responsiveness.
Compounds of the invention were administered by intravenous infusion or bolus oral administration, and the effects on cardiovascular parameters were determined.
Dose related effects on the test compound on blood pressure (BP), heart rate (HR), maximum change in left ventricular pressure with time (dP/dt max), % change in cardiac force (CF) and the increase in mean arterial blood pressure relative to controls (MABP) were compared to pretreatment control values, expressed as a % change and rated for activity. Statistical evaluations were made using the appropriate parametric test against controls.

adult mongrel dogs [2] = assay: Renal vasodilating activity in anesthetized dogs; type: in vivo, dog (adult mongrel); details: Canis lupus familiaris, relative to controls; for change in vivo at 1.2 mg/kg: 1.2 mg/kg intravenous; for change in vivo at 6.2 mg/kg: 6.2 mg/kg intravenous; for change in vivo at 0.04 mg/kg: 0.04 mg/kg intravenous; for change in vivo at 0.34 mg/kg: 0.34 mg/kg intravenous; for change in vivo at 0.14 mg/kg: 0.14 mg/kg intravenous; for change in vivo at 0.2 mg/kg: 0.2 mg/kg intravenous
Procedure: Goldberg et al, J. Pharmacol. Exp. Ther., 163, 188 (1968), performed an investigation of the structural requirements for dopamine-like renal vasodilation of phenethylamines and apmorphine. The following procedure is a variation of the assay described in that report.
Adult mongrel dogs were anesthetized and surgically prepared for electromagnetic measurement of renal artery blood flow. A carotid artery was cannulated for measuring arterial blood pressure, and drugs were administered intravenously or intraarterially (via the renal artery). Heart rate was monitored with a cardiotachometer. Renal vascular resistance was calculated as the ratio of mean arterial blood pressure/renal artery blood flow. Dopamine was infused intravenously at […] for ten minutes (at an infusion rate of about 1 ml/min) to determine responsiveness of each dog to renal dopamine receptor stimulation. Cumulative dose-response data were obtained by infusing a compound of this invention at progressively increasing (usually three-fold) infusion rates, esch dose being infused for five minutes. The maximum percent increase from pre-drug control in renal artery blood flow (or a decrease in renal vascular resistance) was determined for each infusion dose.
RBF values are percent increase in renal blood flow. RVR values are percent increase in renal vascular resistance. MABP and HR are increases in mean arterial blood pressure and heart rate, respectively, relative to controls.

[3] = read-out: CF, percent change in cardiac force
[4] = read-out: HR, percent change in heart rate
[5] = read-out: MABP, mean arterial blood pressure
[6] = read-out: dP/dt, maximum change left ventricular pressure with time
[7] = read-out: RBF, renal blood flow
[8] = read-out: RVR, renal vascular resistance

COc1cc2c([N+](=O)[O-])c(O)nc(C)c2c(OC)c1OC [BE]
change in vivo at 0.875 mg/kg (adult mongrel dogs [1]; [3]): 84% | change in vivo at 0.875 mg/kg (adult mongrel dogs [1]; [4]): 18% | change in vivo at 0.875 mg/kg (adult mongrel dogs [1]; [5]): -22% | change in vivo at 0.875 mg/kg (adult mongrel dogs [1]; [6]): 38% | change in vivo at 1.2 mg/kg (adult mongrel dogs [2]; [4]): 32% | change in vivo at 1.2 mg/kg (adult mongrel dogs [2]; [5]): -26% | change in vivo at 1.2 mg/kg (adult mongrel dogs [2]; [7]): 60% | change in vivo at 1.2 mg/kg (adult mongrel dogs [2]; [8]): -52%

COc1cc2c(C)nc(O)c(NC(C)=O)c2cc1OC [Compound BG, 4-Acetamido-3-hydroxy-6,7-dimethoxy-1-methylisoquinoline Hemihydrate]
change in vivo at 8.75 mg/kg (adult mongrel dogs [1]; [3]): 47% | change in vivo at 8.75 mg/kg (adult mongrel dogs [1]; [4]): 5% | change in vivo at 8.75 mg/kg (adult mongrel dogs [1]; [5]): -3% | change in vivo at 8.75 mg/kg (adult mongrel dogs [1]; [6]): 33% | change in vivo at 6.2 mg/kg (adult mongrel dogs [2]; [4]): 14% | change in vivo at 6.2 mg/kg (adult mongrel dogs [2]; [5]): 6% | change in vivo at 6.2 mg/kg (adult mongrel dogs [2]; [7]): 39% | change in vivo at 6.2 mg/kg (adult mongrel dogs [2]; [8]): -24%

CCOc1cc2c(C)nc(O)c([N+](=O)[O-])c2cc1OC [BH]
change in vivo at 0.125 mg/kg (adult mongrel dogs [1]; [3]): 134% | change in vivo at 0.125 mg/kg (adult mongrel dogs [1]; [4]): 18% | change in vivo at 0.125 mg/kg (adult mongrel dogs [1]; [5]): -24% | change in vivo at 0.125 mg/kg (adult mongrel dogs [1]; [6]): 74% | change in vivo at 0.04 mg/kg (adult mongrel dogs [2]; [4]): 19% | change in vivo at 0.04 mg/kg (adult mongrel dogs [2]; [5]): -10% | change in vivo at 0.04 mg/kg (adult mongrel dogs [2]; [7]): 25% | change in vivo at 0.04 mg/kg (adult mongrel dogs [2]; [8]): -28%

COc1cc2c(-c3ccccc3)nc(O)c([N+](=O)[O-])c2cc1OC [BL]
change in vivo at 1.875 mg/kg (adult mongrel dogs [1]; [3]): 10% | change in vivo at 1.875 mg/kg (adult mongrel dogs [1]; [4]): -29% | change in vivo at 1.875 mg/kg (adult mongrel dogs [1]; [5]): -15% | change in vivo at 1.875 mg/kg (adult mongrel dogs [1]; [6]): 11% | change in vivo at 0.34 mg/kg (adult mongrel dogs [2]; [4]): 29% | change in vivo at 0.34 mg/kg (adult mongrel dogs [2]; [5]): 6% | change in vivo at 0.34 mg/kg (adult mongrel dogs [2]; [7]): 13% | change in vivo at 0.34 mg/kg (adult mongrel dogs [2]; [8]): -5%

COc1cc2c(C)nc(O)c(N)c2cc1OC [Compound BBQ, 4-Amino-3-hydroxy-6,7-dimethoxy-1-methylisoquinoline]
change in vivo at 0.875 mg/kg (adult mongrel dogs [1]; [3]): 99% | change in vivo at 0.875 mg/kg (adult mongrel dogs [1]; [4]): 7% | change in vivo at 0.875 mg/kg (adult mongrel dogs [1]; [5]): -5% | change in vivo at 0.875 mg/kg (adult mongrel dogs [1]; [6]): 106% | change in vivo at 1.2 mg/kg (adult mongrel dogs [2]; [4]): 4% | change in vivo at 1.2 mg/kg (adult mongrel dogs [2]; [5]): 6% | change in vivo at 1.2 mg/kg (adult mongrel dogs [2]; [7]): 22% | change in vivo at 1.2 mg/kg (adult mongrel dogs [2]; [8]): -12%

O=[N+]([O-])c1c(O)ncc2cc3c(cc12)OCO3 [Compound BC]
change in vivo at 1.875 mg/kg (adult mongrel dogs [1]; [3]): 16% | change in vivo at 1.875 mg/kg (adult mongrel dogs [1]; [4]): 0% | change in vivo at 1.875 mg/kg (adult mongrel dogs [1]; [5]): -7.5% | change in vivo at 1.875 mg/kg (adult mongrel dogs [1]; [6]): 22% | change in vivo at 1.2 mg/kg (adult mongrel dogs [2]; [4]): -6% | change in vivo at 1.2 mg/kg (adult mongrel dogs [2]; [5]): -14% | change in vivo at 1.2 mg/kg (adult mongrel dogs [2]; [7]): 20% | change in vivo at 1.2 mg/kg (adult mongrel dogs [2]; [8]): -28%

CCCCOc1cc2c(C)nc(O)c([N+](=O)[O-])c2cc1OC [BI]
change in vivo at 0.375 mg/kg (adult mongrel dogs [1]; [3]): 118% | change in vivo at 0.375 mg/kg (adult mongrel dogs [1]; [4]): 30% | change in vivo at 0.375 mg/kg (adult mongrel dogs [1]; [5]): -35% | change in vivo at 0.375 mg/kg (adult mongrel dogs [1]; [6]): 8% | change in vivo at 0.14 mg/kg (adult mongrel dogs [2]; [5]): -8% | change in vivo at 0.14 mg/kg (adult mongrel dogs [2]; [7]): 16% | change in vivo at 0.14 mg/kg (adult mongrel dogs [2]; [8]): -18%

Cc1nc(O)c([N+](=O)[O-])c2cc3c(cc12)OCO3 [Compound BB]
change in vivo at 1.875 mg/kg (adult mongrel dogs [1]; [3]): 28% | change in vivo at 1.875 mg/kg (adult mongrel dogs [1]; [4]): -17% | change in vivo at 1.875 mg/kg (adult mongrel dogs [1]; [5]): -8% | change in vivo at 1.875 mg/kg (adult mongrel dogs [1]; [6]): -1% | change in vivo at 6.2 mg/kg (adult mongrel dogs [2]; [4]): 90% | change in vivo at 6.2 mg/kg (adult mongrel dogs [2]; [5]): -16% | change in vivo at 6.2 mg/kg (adult mongrel dogs [2]; [7]): 19% | change in vivo at 6.2 mg/kg (adult mongrel dogs [2]; [8]): -30%

CCOc1cc2c([N+](=O)[O-])c(O)nc(C)c2cc1OC [BAN]
change in vivo at 0.12 mg/kg (adult mongrel dogs [1]; [3]): 49% | change in vivo at 0.12 mg/kg (adult mongrel dogs [1]; [4]): 4% | change in vivo at 0.12 mg/kg (adult mongrel dogs [1]; [5]): -18% | change in vivo at 0.12 mg/kg (adult mongrel dogs [1]; [6]): 12% | change in vivo at 6.2 mg/kg (adult mongrel dogs [2]; [4]): -5% | change in vivo at 6.2 mg/kg (adult mongrel dogs [2]; [5]): 1% | change in vivo at 6.2 mg/kg (adult mongrel dogs [2]; [7]): 61% | change in vivo at 6.2 mg/kg (adult mongrel dogs [2]; [8]): -37%

COc1cc2c(C)nc(O)c([N+](=O)[O-])c2cc1OC [Compound BA, 3-Hydroxy-6,7-dimethoxy-1-methyl-4-nitroisoquinoline]
change in vivo at 0.15 mg/kg (adult mongrel dogs [1]; [3]): 92% | change in vivo at 0.15 mg/kg (adult mongrel dogs [1]; [4]): 8% | change in vivo at 0.15 mg/kg (adult mongrel dogs [1]; [5]): -19% | change in vivo at 0.15 mg/kg (adult mongrel dogs [1]; [6]): 63% | change in vivo at 0.2 mg/kg (adult mongrel dogs [2]; [4]): 83% | change in vivo at 0.2 mg/kg (adult mongrel dogs [2]; [5]): -12% | change in vivo at 0.2 mg/kg (adult mongrel dogs [2]; [7]): 14% | change in vivo at 0.2 mg/kg (adult mongrel dogs [2]; [8]): -23%

COc1cc2cnc(O)c(NC(C)=O)c2cc1OC [BF]
change in vivo at 1.875 mg/kg (adult mongrel dogs [1]; [3]): 23% | change in vivo at 1.875 mg/kg (adult mongrel dogs [1]; [4]): 7% | change in vivo at 1.875 mg/kg (adult mongrel dogs [1]; [5]): 1% | change in vivo at 1.875 mg/kg (adult mongrel dogs [1]; [6]): 38% | change in vivo at 6.2 mg/kg (adult mongrel dogs [2]; [4]): -8% | change in vivo at 6.2 mg/kg (adult mongrel dogs [2]; [5]): 14% | change in vivo at 6.2 mg/kg (adult mongrel dogs [2]; [7]): 30% | change in vivo at 6.2 mg/kg (adult mongrel dogs [2]; [8]): -12%

CCOc1cc2c(C)nc(O)c([N+](=O)[O-])c2cc1OCC [BK]
change in vivo at 0.375 mg/kg (adult mongrel dogs [1]; [3]): 62% | change in vivo at 0.375 mg/kg (adult mongrel dogs [1]; [4]): 11% | change in vivo at 0.375 mg/kg (adult mongrel dogs [1]; [5]): -2% | change in vivo at 0.375 mg/kg (adult mongrel dogs [1]; [6]): 22% | change in vivo at 0.34 mg/kg (adult mongrel dogs [2]; [4]): 3% | change in vivo at 0.34 mg/kg (adult mongrel dogs [2]; [5]): -21% | change in vivo at 0.34 mg/kg (adult mongrel dogs [2]; [7]): 14% | change in vivo at 0.34 mg/kg (adult mongrel dogs [2]; [8]): -30%
